# Laboratory results: patent publication US20220177839A1, “COMPOSITION, CULTURE MEDIUM AND METHOD FOR INDUCING AND/OR AMPLIFYING TSCM IN VITRO” (SHANGHAI SINOBAY BIOTECHNOLOGY CO., LTD., priority 2019, published 2022)
# Test system: human primary CD8^+T cells (CD3^+CD8^+)
# Test: In-vitro induction and amplification of CD8+TSCM in culture media A to E (cell count, flow cytometry CD45RA, CCR7, CD95)
# Format: cell-based
# Conditions: GSK-3β inhibitor
# Method: 1) Pre-prepared human primary T cells (Shanghai Sinobay Bio-Tech Co., Ltd., hereinafter referred to as “Sinobay”) were selected by a magnetic bead negative selection method to obtain human primary CD8^+T cells (CD3^+CD8^+), and the human primary CD8^+T cells (CD3^+CD8^+) were placed in a 96-well U-bottom culture plate, with 5×10^4 CD8^+T cells in each well;
# 2) subsequently, culture media A to E and magnetic beads coupled to an anti-CD3 antibody and an anti-CD28 antibody were added into the culture plates containing the CD8^+T cells, wherein a ratio of the number of the magnetic beads to the number of the cells was 1:1; and fresh culture media A to E were supplemented at Day 4, Day 7, Day 10 and Day 13 of cell culture; and
# 3) the cells were counted at Day 0, Day 7 and Day 14 of cell culture respectively, flow cytometry antibodies (CD45RA, CCR7 and CD95) for detecting TSCM were incubated, and the TSCM was detected by using a flow cytometry.
structure (smiles),measurement,value
Nc1cccc(-c2cc3c(Oc4cccc(O)c4)ncnc3[nH]2)c1 [TWS119],concentration range that effectively induces the formation of TSCM,1 to 50 µM
